≈ marks a conversion by molar mass, not a printed value. Where “and” joins values, the source holds several entries; their conditions need not be identical. Equal values may be shown once. Read-outs that look alike come from different tables or passages of the source.

Series [1] deals with L. mexicana amazonensis promastigotes. The experiment in a line: In vitro activity against Leishmania promastigotes (amazonensis). In kind it is cell-based. Further details: CP100: unit not given here. The conditions noted are these: for IC50: Leishmania mexicana, mean inhibitory concentration, read-out: CI50 (the source's name); for CP100: minimal parasiticidal concentration abolishing motility of all parasites. The protocol:
(§1) Mean inhibitory concentrations (Cl50%) against L. mexicana amazonensis, L. donovani infantum and L. braziliensis braziliensis promastigotes were determined according to the method described by Bodley A L et al (J Infect Dis 1995; 172(4):1157-9.). Minimal parasiticidal concentrations (CP100, minimal concentrations capable of abolishing the motility of all parasites in the culture) were also determined. Amphotericin B and Glucantime® were tested as reference drugs.

The test system of series [2] is L. m. amazonensis. Briefly: Experimental cutaneous leishmaniosis, early stage lesions treated every 12 h. In kind it is in vivo, Balb/c mice. Conditions: i.p. every 12 h. The protocol:
(§2) Balb/c mice were experimentally infected with L. m. amazonensis promastigotes by intradermal injection in the footpads and six weeks later they were treated with the test compounds by intraperitoneal route. The product 2-bromo-5-(2-bromo-2-nitrovinyl)-furan was administered at a dose of 5 mg/Kg; the 2-bromo-5-(2-methyl-2-nitrovinyl)-furan, at 50 mg/Kg and Amphotericin B, at 1 mg/Kg. Animals were daily dosed for 14 days. Miglyol 810, the vehicle used for the β-nitrovinylfuran derivatives, was similarly administered to a group of mice.
The experiment was essentially carried out in a similar way as the one described above. However, 2-bromo-5-(2-bromo-2-nitrovinyl,-furan was administered at a dose of 2 mg/Kg and 2-bromo-5-(2-methyl-2-nitrovinyl)-furan at 100 mg/Kg. Treatments were administered by intraperitoneal route, but every 12 h instead of 24 h.

Series [3] deals with trypomastigotes of T. cruzi. Briefly: In vitro activity against Trypanosoma cruzi. In kind it is cell-based. Conditions: for IC50: Trypanosoma cruzi, T. cruzi trypomastigotes grown in rat myoblast cell line, read-out: CI50 (the source's name); for CP100: minimal concentration that immobilizes all parasites. Here is the method: The in vitro activity of the β-nitrovinylfuran derivatives was tested against trypomastigotes of T. cruzi grown in a rat myoblast cell line. Minimal parasiticidal concentrations (minimal concentration that immobilizes all the parasites in the culture) and mean inhibitory concentrations (concentration that reduces the number of parasites to 50% of those found in the un-treated control cultures) were determined according to Buckner's method (Antimicrob Agents Chemother 1996; 40(11):2592-7).

The subject of series [4] is L. m. amazonensis. The experiment in a line: Experimental cutaneous leishmaniosis, early stage lesions treated every 24 h. In kind it is in vivo, Balb/c mice. Here is the method:
as §2

Series [5] is described as follows: Toxicological studies (LD50, LD0, MTD), intraperitoneal. In kind it is in vivo, female Balb/c mice. Conditions: for MTD at 14 days: female, Balb/c, repeated intraperitoneal administration every 24 h during 14 days, read-out: MTD (every 24 h); for LD0: maximal non-lethal dose calculated from dose-mortality curves, single i.p. injection; for LD50: single intraperitoneal injection, female Balb/c mice. Here is the method: The same animal model used for in vivo anti-leishmanial tests was used to perform comparative toxicological studies of the β-nitrovinylfuran derivatives. The main excipient of the compositions used with this purpose was the sunflower oil. The mean lethal doses (LD50) of each β-nitrovinylfuran derivative and Amphotericin B were estimated in female Balb/c mice (18-20g body weight), treated by a single intraperitoneal injection. The maximal non-lethal doses (LD0) were calculated from the dose-mortality curves. The maximal tolerated doses (MTD, maximal dose causing neither mortality nor body weight losses over 10% respect to the initial weight) by repeated intraperitoneal administration every 12 or 24 h during 14 days were determined as well.

Series [6] deals with L. donovani infantum promastigotes. Briefly: In vitro activity against Leishmania promastigotes (infantum). In kind it is cell-based. Conditions: for IC50: Leishmania donovani, mean inhibitory concentration, read-out: CI50 (the source's name); for CP100: minimal parasiticidal concentration. Further details: CP100: unit not given here. Here is the method:
as §1

Series [7] concerns L. braziliensis braziliensis promastigotes. Briefly: In vitro activity against Leishmania promastigotes (braziliensis). In kind it is cell-based. Set-up: CP100: unit not given here. Conditions: for IC50: Leishmania braziliensis, mean inhibitory concentration, read-out: CI50 (the source's name); for CP100: minimal parasiticidal concentration. The protocol:
as §1

Series [8] relates to L. m. amazonensis. Briefly: Experimental cutaneous leishmaniosis, chronic lesions treated every 12 h. Type of series: in vivo, Balb/c mice. The conditions noted are these: for effectiveness on chronic lesions: first week, F 50 mg/Kg twice a day, Amphotericin B 5 mg/Kg every other day. Here is the method:
Mice developed chronic leishmanial lesions at eighteen weeks post-infection. Lesions were ulcerated and covered with a thick crust. The average dorso-plantar diameter of the infected foot was 1.23±0.24 cm and the lateral diameter was 1.24±0.19 cm. At that stage the treatment started twice a day with either 2-bromo-5-(2-bromo-2-nitrovinyl)-furan at 2 mg/Kg; 2-bromo-5-(2-methyl-2-nitrovinyl)-furan at 50 mg/Kg or Amphotericin B at 5 mg/Kg every other day. A control group formed by infected non-treated mice was also included in the experiment. All drugs were administered by intraperitoneal route for 14 days. […] Amphotericin B was not effective, since neither the dorso-plantar nor the lateral diameters differed statistically from the lesions of the control group (P>0.05).

The subject of the next series is Leishmania promastigotes. The experiment in a line: In vitro activity against Leishmania promastigotes (three species). Type of series: cell-based. The protocol:
as §1

Setting [9] is: mouse, in vivo, ip, read-out: LD50.

For the compound `CC(=Cc1ccc(Br)o1)[N+](=O)[O-]` [F, 2-bromo-5-(2-methyl-2-nitrovinyl)-furan], the IC50 in [1] was 0.2 µg/mL (≈ 0.862 µM); in [3], 5.3 µg/mL and 23 µM; in [6] it was 0.2 µg/mL (≈ 0.862 µM); in [7], 0.24 µg/mL (≈ 1.03 µM). For the same compound, the CP100 in series [1] is 1.42; in series [3], 30.0 μg/mL and 129.3 μM; in series [6], 0.62; in series [7], 1.32. For the same compound, in the series on L. m. amazonensis [2], the “activity compared with Amphotericin B” value is reported as “higher activity than Amphotericin B”. Also, the lesion growth rate result in the series with L. m. amazonensis [2] (D 2 mg/Kg, F 100 mg/Kg) is reported as “significantly lower compared to controls”. Further, the lesion size change result in the series on L. m. amazonensis [4] (first week of treatment, 50 mg/Kg i.p. daily) was “small decrease in lesion size”. The lesion growth result in the series with L. m. amazonensis [4] (first week of treatment, i.p. daily, D 5 mg/Kg, F 50 mg/Kg) is “minimal lesion growth”. The MTD at 14 days in series [5] (mouse, in vivo, ip) is 100 mg/kg. Besides, the LD0 in [5] is 200 mg/kg. For the same compound, the median lethal dose (LD50) (in general, the dose expected to kill half of the subjects tested) in series [5] (setting [9]) came out at 246 mg/kg. In addition, the lesion size result in the series on L. m. amazonensis [8] (by the end of treatment (14 days)) is listed as “ineffective”. In addition, the “effectiveness on chronic lesions” value in the series with L. m. amazonensis [8] was “did not prove to be effective”.

As to `C[C@@H]1[C@H](O)[C@@H](C)/C=C/C=C/C=C/C=C/C=C/C=C/C=C/[C@H](O[C@@H]2O[C@H](C)[C@@H](O)[C@H](N)[C@@H]2O)C[C@@H]2O[C@](O)(C[C@@H](O)C[C@@H](O)[C@H](O)CC[C@@H](O)C[C@@H](O)CC(=O)O[C@H]1C)C[C@H](O)[C@H]2C(=O)O` [Amphotericin B, reference compound], the CP100 in series [1] was determined as 0.051. Further, the “activity relative to the β-nitrovinylfuran derivatives” value in the series on Leishmania promastigotes was “more active than the β-nitrovinylfuran derivatives”. Besides, the “lesion evolution versus controls” value in the series with L. m. amazonensis [4] (during and after 14 days treatment, Amphotericin B 1 mg/Kg, D 5 mg/Kg) is on record as “evolved similarly to controls”. Besides, in the series on L. m. amazonensis [4] (first week after discontinuation of treatment, 1 mg/Kg), the “lesion growth rate after discontinuation” value is on record as “remarkable decrease of lesion growth rate”. Moreover, in series [5], the LD0 is 15 mg/kg and the LD50 amounted to 22 mg/kg. In series [6], this compound came in with a CP100 of 0.016. This compound returned a CP100 in series [7] of 0.028. In the series on L. m. amazonensis [8] (by the end of treatment), the “dorso-plantar diameter versus control” value is given as “incremented their lesion dorso-plantar diameters as controls” and the “lateral diameter versus control” value is “the change was not different”. Further, in the series on L. m. amazonensis [8], the “effectiveness on chronic lesions” value was “not effective”.

For the compound `O=C(Cn1ccnc1[N+](=O)[O-])NCc1ccccc1` [Benznidazole, reference compound], in series [3], the IC50 was 0.9 µg/mL and 3.3 µM; the CP100 was >40 μg/mL and >154 μM.

As for `O=[N+]([O-])C(Br)=Cc1ccco1` [Compound C, 2-(2-bromo-2-nitrovinyl)-furan], the IC50 was 0.63 µg/mL (≈ 2.89 µM) in series [1]; 3.7 µg/mL and 16.9 µM in series [3]; 0.36 µg/mL (≈ 1.65 µM) in series [6]; 0.25 µg/mL (≈ 1.15 µM) in series [7]. For the same compound, the CP100 was 1.77 in [1]; 10.0 μg/mL and 45.9 μM in [3]; 2.01 in series [6]; 1.25 in series [7]. In addition, the LD0 in series [5] was 35 mg/kg. Besides, the 50% lethal dose (LD50) in series [5] (setting [9]) was found to be 51 mg/kg.

Turning to `O=[N+]([O-])C=Cc1ccco1` [A, 2-(2-nitrovinyl)-furan], the IC50 in series [1] is 0.66 µg/mL (≈ 4.74 µM); in [3], 1.8 µg/mL and 12.6 µM; in series [6] it was 0.35 µg/mL (≈ 2.52 µM); in series [7], 0.2 µg/mL (≈ 1.44 µM). The CP100 in series [1] is 1.12; in series [3] it was 10.0 μg/mL and 71.9 μM; in [6] it was 1.75; in series [7], 1.29. The MTD at 14 days in series [5] (mouse, in vivo, ip) worked out at 55 mg/kg. For the same compound, in series [5], the LD0 is 50 mg/kg. For the same compound, in series [5] (setting [9]), the LD50 is 68 mg/kg.

`CC(=Cc1ccco1)[N+](=O)[O-]` [E, 2-(2-methyl-2-nitrovinyl)-furan]: the IC50 in series [1] was 0.34 µg/mL (≈ 2.22 µM); in [3], 4.7 µg/mL and 31 µM; in [6], 0.31 µg/mL (≈ 2.02 µM); in series [7], 0.35 µg/mL (≈ 2.29 µM). Moreover, the CP100 in series [1] was 3.49; in series [3], 30.0 μg/mL and 196.1 μM; in series [6], 1.27; in series [7], 4.84. Further, the MTD at 14 days in series [5] (mouse, in vivo, ip) worked out at 60 mg/kg. Besides, the LD0 in [5] was 65 mg/kg. Also, the median lethal dose (LD50) in [5] (setting [9]) is 80 mg/kg.

As for “meglumine antimoniate [Glucantime ®, reference compound]”, the CP100 in series [1], in series [6] and in series [7] was greater than 4250 in each case. Moreover, the “activity relative to the β-nitrovinylfuran derivatives” value in the series on Leishmania promastigotes was “significantly less active”.

Turning to `O=[N+]([O-])C=Cc1ccc(Br)o1` [B, 2-bromo-5-(2-nitrovinyl)-furan], the IC50 in series [1] was 0.45 µg/mL (≈ 2.06 µM); in [3] it was 1.2 µg/mL and 5.7 µM; in series [6], 0.23 µg/mL (≈ 1.06 µM); in [7], 0.18 µg/mL (≈ 0.826 µM). Further, the CP100 in series [1] was 2.08; in [3] it was 3.3 μg/mL and 15.3 μM; in series [6], 0.51; in [7], 0.61. The MTD at 14 days in series [5] (mouse, in vivo, ip) came to 20 mg/kg. In addition, in series [5], the LD0 was 45 mg/kg. For the same compound, the LD50 in series [5] (setting [9]) is 73 mg/kg.

The values above are taken from patent US20090042978A1, “Pharmaceutical Compositions Containing Nitrovinylfuran Derivatives for the Treatment of Leishmaniosis and Trypanosomosis” (CENTRO DE BIOACTIVOS QUIMICOS, priority 2005, published 2009).
